Assay results as given in US20040018150A1, “Prodrugs of phosphonate nucleotide analogues and methods for selecting and making same” (priority 2003, published 2004).
pIC50: −log10 of the molar value. Read-outs that look alike come from different tables or passages of the source.

Tests used:
[1] = Stability in human plasma; format: in vitro ADME
Description: (§1) The in vitro metabolism and stability of separated diastereomers were determined in PLCE, MT-2 extract and human plasma. A biological sample listed below, 80 μL, was transferred into a screw-capped centrifuge tube and incubated at 37° C. for 5 min. A solution containing 0.2 mg/mL of the test compound in a suitable buffer, 20 μL, was added to the biological sample and mixed. The reaction mixture, 20 μL, was immediately sampled and mixed with 60 μL of methanol containing 0.015 mg/mL of 2-hydroxymethylnaphthalene as an internal standard for HPLC analysis. The sample was taken as the time-zero sample. Then, at specific time points, the reaction mixture, 20 μL, was sampled and mixed with 60 μL of methanol containing the internal standard. The mixture thus obtained was centrifuged at 15,000 G for 5 min and the supernatant was analyzed with HPLC under the conditions described below.
(3) Human plasma (pooled normal human plasma from George King Biomedical Systems, Inc.)
In the study for human plasma, the test compound was dissolved in TBS. TBS (tris-buffered saline, Sigma) contains 0.05 M Tris, 0.0027 M potassium chloride, and 0.138 M sodium chloride. pH 7.5 at 37° C.
(§2) The HPLC analysis was carried out under the following conditions.

[2] = Stability / hydrolysis in MT-2 cell extract; format: in vitro ADME
Description: as §1
(2) MT-2 cell extract was prepared from MT-2 cells according to the published procedure [A. Pompon, I. Lefebvre, J.-L. Imbach, S. Kahn, and D. Farquhar, “Antiviral Chemistry & Chemotherapy”, 5:91-98 (1994)] except for using HEPES buffer described below as the medium.
In the study for MT-2 cell extracts, the test compound was dissolved in HEPES buffer. HEPES buffer contains 0.010 M HEPES, 0.05 M potassium chloride, 0.005 M magnesium chloride, and 0.005 M dl-dithiothreitol. pH 7.4 at 37° C.
as §2

[3] = system: PLCE (porcine liver carboxyesterase); assay: in vitro; format: in vitro ADME; details: 37° C., PBS pH 7.4
Description: as §1
(§3) (1) PLCE (porcine liver carboxyesterase from Sigma, 160 u/mg protein, 21 mg protein/mL) diluted 20 fold with PBS (phosphated-buffered saline).
(§4) In the study for PLCE, the test compound was dissolved in PBS. PBS (phosphate-buffered saline, Sigma) contains 0.01 M phosphate, 0.0027 M potassium chloride, and 0.137 M sodium chloride. pH 7.4 at 37° C.
as §2

[4] = system: porcine liver carboxyesterase (PLCE); assay: in vitro; format: in vitro ADME; details: pig; 37° C., PBS pH 7.4; read-out: PLCE hydrolysis rate t1/2
Description: as §1, §3, §4, §2

[5] = Incubation of radiolabeled PMPA prodrugs or PMPA in human whole blood; metabolites in plasma, PBMCs and RBCs; format: in vitro ADME; details: human blood; for Total C-14 Recovered: 1 h incubation, 60 μg-eq; for Metabolites (% of Total Peak Area): GS 7340: 1 h
Description: After 1 hour, plasma, red blood cells (RBCs) and peripheral blood mononuclear cells (PBMCs) were isolated and analyzed by HPLC with radiometric detection.

[6] = Excretion and tissue distribution of radiolabelled prodrug in dogs; details: dogs; for % Dose / Conc.: oral 10 mg-eq. PMPA/kg
Description: Plasma and peripheral blood mononuclear cells (PBMCs) were obtained over the 24-hr period. Urine and feces were cage collected over 24 hr. At 24 h after the dose, the animals were sacrificed and tissues removed for analysis. Total radioactivity in tissues was determined by oxidation and liquid scintillation counting.

[7] = Cytotoxicity in MT-2 cells; details: human
HIV-1 = assay: microbe, parasite or virus in culture

Structure (SMILES): CC(C)OC(=O)[C@H](C)N[P@](=O)(CO[C@H](C)Cn1cnc2c(N)ncnc21)Oc1ccccc1 (single isomer, unassigned) [GS-7340]
- Human Plasma Stability (HP) product ([1]; 37° C., TBS pH 7.5): Met. Y
- half-life at 0.04 mg/mL ([1]; pH 7.5, human plasma, read-out: Stability T 1/2 Human Plasma): 90 min
- MT-2 extract hydrolysis product ([2]; 37° C., HEPES buffer pH 7.4): Met. X & PMPA
- half-life at 0.04 mg/mL ([2]; human, pH 7.4, MT-2 cell extract, read-out: Stability T 1/2 MT-2 Cell Extract): 28.3 min
- PLCE hydrolysis product [3]: Met. X & PMPA
- half-life at 0.04 mg/mL [4]: 3.3 min
- Total C-14 Recovered ([5]; PBMC): 1.25 μg-eq
- Metabolites (% of Total Peak Area): GS 7340 ([5]; Plasma/FP): 84%
- Total C-14 Recovered ([5]; Plasma/FP): 43.0 μg-eq
- Metabolites (% of Total Peak Area): GS 7340 ([5]; RBC/FP): 57%
- Total C-14 Recovered ([5]; RBC/FP): 12.6 μg-eq
- radioactivity in plasma due to intact GS-7340 ([5]; plasma after 1 hour): 84%
- % Dose ([6]; Abdominal fat, 24 h): 0.00%
- Conc. ([6]; Abdominal fat, 24 h): 0.90 ug-eq/g
- % Dose ([6]; Adrenal Gland, 24 h): 0.00%
- Conc. ([6]; Adrenal Gland, 24 h): 3.47 ug-eq/g
- % Dose ([6]; Axillary Lymph Nodes, 24 h): 0.01%
- Conc. ([6]; Axillary Lymph Nodes, 24 h): 5.54 ug-eq/g
- % Dose ([6]; Bile, 24 h): 0.22%
- Conc. ([6]; Bile, 24 h): 40.48 ug-eq/g
- % Dose ([6]; Bone Marrow, 24 h): 0.00%
- Conc. ([6]; Bone Marrow, 24 h): 2.05 ug-eq/g
- % Dose ([6]; Brain, 24 h): 0.00%
- Conc. ([6]; Brain, 24 h): <LOD
- % Dose ([6]; Cerebrospinal Fluid, 24 h): 0.00%
- Conc. ([6]; Cerebrospinal Fluid, 24 h): 0.00 ug-eq/g
- % Dose ([6]; Duodenum, 24 h): 0.44%
- Conc. ([6]; Duodenum, 24 h): 8.77 ug-eq/g
- % Dose ([6]; Eye (L + R), 24 h): 0.00%
- Conc. ([6]; Eye (L + R), 24 h): 0.23 ug-eq/g
- % Dose ([6]; Feces, collected over 24 hr): 0.19%
- % Dose ([6]; Femoral Bone, 24 h): 0.00%
- Conc. ([6]; Femoral Bone, 24 h): 0.28 ug-eq/g
- % Dose ([6]; Gall bladder, 24 h): 0.04%
- Conc. ([6]; Gall bladder, 24 h): 25.02 ug-eq/g
- % Dose ([6]; Heart, 24 h): 0.15%
- Conc. ([6]; Heart, 24 h): 1.97 ug-eq/g
- % Dose ([6]; Ileum, 24 h): 0.16%
- Conc. ([6]; Ileum, 24 h): 4.61 ug-eq/g
- % Dose ([6]; Iliac Lymph Nodes, 24 h): 0.01%
- Conc. ([6]; Iliac Lymph Nodes, 24 h): 5.42 ug-eq/g
- % Dose ([6]; Inguinal Lymph Nodes, 24 h): 0.00%
- Conc. ([6]; Inguinal Lymph Nodes, 24 h): 4.12 ug-eq/g
- % Dose ([6]; Jejunum, 24 h): 0.79%
- Conc. ([6]; Jejunum, 24 h): 4.16 ug-eq/g
- % Dose ([6]; Kidney, 24 h): 3.78%
- Conc. ([6]; Kidney, 24 h): 80.21 ug-eq/g
- % Dose ([6]; Large Intestine, 24 h): 2.65%
- Conc. ([6]; Large Intestine, 24 h): 47.20 ug-eq/g
- % Dose ([6]; Liver, 24 h): 16.45%
- Conc. ([6]; Liver, 24 h): 52.94 ug-eq/g
- % Dose ([6]; Lungs, 24 h): 0.34%
- Conc. ([6]; Lungs, 24 h): 4.33 ug-eq/g
- % Dose ([6]; Mesenteric Lymph Nodes, 24 h): 0.04%
- Conc. ([6]; Mesenteric Lymph Nodes, 24 h): 6.88 ug-eq/g
- % Dose ([6]; PBMC): 0.00%
- Conc. ([6]; PBMC, calculated using typical recovery of 15 × 10^6 cells total, mean PBMC volume 0.2 picoliters/cell): 63.20 ug-eq/g
- % Dose ([6]; Pancreas, 24 h): 0.01%
- Conc. ([6]; Pancreas, 24 h): 3.51 ug-eq/g
- % Dose ([6]; Pituitary Gland, 24 h): 0.00%
- Conc. ([6]; Pituitary Gland, 24 h): 1.80 ug-eq/g
- Conc. ([6]; Plasma at 0.25 h): 3.48 ug-eq/g
- % Dose ([6]; Plasma at 24 h): 0.00%
- Conc. ([6]; Plasma at 24 h): 0.20 ug-eq/g
- % Dose ([6]; Prostate, 24 h): 0.00%
- Conc. ([6]; Prostate, 24 h): 2.14 ug-eq/g
- % Dose ([6]; Salivary Gland (L + R), 24 h): 0.03%
- Conc. ([6]; Salivary Gland (L + R), 24 h): 5.54 ug-eq/g
- % Dose ([6]; Skeletal Muscle, 24 h): 0.01%
- Conc. ([6]; Skeletal Muscle, 24 h): 1.12 ug-eq/g
- % Dose ([6]; Skin, 24 h): 0.00%
- Conc. ([6]; Skin, 24 h): 0.95 ug-eq/g
- % Dose ([6]; Spinal Cord, 24 h): 0.00%
- Conc. ([6]; Spinal Cord, 24 h): 0.04 ug-eq/g
- % Dose ([6]; Spleen, 24 h): 0.17%
- Conc. ([6]; Spleen, 24 h): 8.13 ug-eq/g
- % Dose ([6]; Stomach, 24 h): 0.26%
- Conc. ([6]; Stomach, 24 h): 2.68 ug-eq/g
- % Dose ([6]; Testes (L + R), 24 h): 0.02%
- Conc. ([6]; Testes (L + R), 24 h): 2.01 ug-eq/g
- % Dose ([6]; Thyroid Gland, 24 h): 0.00%
- Conc. ([6]; Thyroid Gland, 24 h): 4.78 ug-eq/g
- % Dose ([6]; Total GI Tract Contents, 24 h): 21.64%
- % Dose ([6]; Total Recovery, 24 h): 68.96%
- % Dose ([6]; Urine, collected over 24 hr): 14.73%
- % Dose ([6]; Whole Blood, 24 h): 0.16%
- Conc. ([6]; Whole Blood, 24 h): 0.20 ug-eq/g
- increase of levels of PMPA in the lymphatic tissues, bone marrow, and skeletal muscle ([6]; 24 hours after single oral dose, versus TDF): 10 fold
- CC50 ([7]; CC50, cell culture): ≥ 40000 nM
- CC50 ([7]; Cytotoxicity CC50, MT-2 cells): > 40000 nM
- pIC50 (HIV-1; Human immunodeficiency virus 1, MT2): 8.30
- pIC50 (HIV-1; Human immunodeficiency virus 1, MT2, read-out: HIV IC50): 8.30
- pIC50 (HIV-1; Human immunodeficiency virus 1, MT2, read-out: HIV-1 Activity IC50): 8.30
